Measurements: patent publication US9339508B2, “Use of 3-methoxy-pregnenolone for the preparation of a drug for treating a traumatic brain injury” (MAPREG, priority 2003, dated 2016)

Assays:
[1] = Neurosteroids and 43B levels in rat plasma and hippocampus; conditions: 3 h after 10 mg/kg subcutaneously
[2] = MAP4343 in the brain after TBI (CHI, LFP, CCI) by LC-MS/MS; assay type: in vivo, rat; conditions: 6 h after CHI, LFP or CCI, 4 h after single subcutaneous injection
Description: MAP4343 was dissolved in sesame oil and injected sub-cutaneously. Two distinct doses of MAP4343 (10 and 20 mg/kg) were tested in each model. The injection took place 2 h after trauma.
In order to establish whether TBI modifies the passage of MAP4343 into the brain, MAP4343 was measured by liquid chromatography associated to tandem mass spectrometry (LC-MS/MS) in the brain of animals sacrificed 6 h after CHI, LFP or CCI (4 h after MAP4343 single injection).
In order to establish whether TBI modifies the passage of 3-methoxy-PREG (MAP434) into the brain, MAP4343 was measured by liquid chromatography coupled to tandem mass spectrometry LC-MS/MS in the brain of animals sacrificed 6 h after CHI, LFP or CCI (4 h. after MAP4343 injection).

[3] = system: rats subjected to spinal cord compression; assay: Spinal cord compression model, BBB score; assay type: in vivo, rat; conditions: 12 mg/kg/day subcutaneous for 2 weeks; as of post-operation day 7
Description: FIG. 7: Effect of molecule 43B on locomotor recovery following spinal cord compression in rats. Animal locomotion was evaluated in a blind format during the 1-28 day post-operative period using the BBB score which evaluates the degree of paralysis (higher values correspond to better recovery). Statistical significance: * indicates p<0.001; ** indicates p<0.0001.
To determine the neuroprotective effects of the molecules tested, a spinal cord compression model is used. This model involves the total paralysis of the animals in the first few days following the operation. This period of paralysis is followed of a phase of approximately three weeks during which the animals partially recover their motor function. The study of this recovery using a simple and precise functional test based on observation of the animals (the BBB score) makes it possible to study the speed and the degree of recovery of the animals, with and without treatment.
Two groups of rats were subjected to spinal cord compression. Then, daily for 2 weeks, the animals received a subcutaneous injection containing either sesame oil alone (control group, n=20), or sesame oil containing molecule 43B (43B group, n=20; 12 mg/kg/day). The first injection was given 5 minutes after spinal cord compression. Locomotion of the animals, using BBB scores, was evaluated in a blind format on post-operation days 1, 4, 7, 14, 21, and 28. […]

[4] = system: social isolated rats; assay: Novel object recognition test, social isolated animals, 1 h ITI; assay type: in vivo, rat; conditions: 10 mg/kg subcutaneously 1 h before task
Excerpt: Cognitive dysfunction, including impaired recognition memory, are common features in depressed patients (Egeland et al., Scand. J. Psychol. 2005). The present experiment explored the ability of 3-methoxy-PREG (43B) administration to increase recognition memory retention in naive animals and to recover recognition memory deficits in animals submitted to the social isolation protocol. Rearing rats in isolation from the time of weaning and throughout adulthood can induce a series of hippocampal structural and molecular deficits paralled by behavioural alterations resembling a depressive-like state (Weiss and Feldon, Psychopharmacology 2001; Bianchi et al., EJN 2006). Recognition memory was assessed using the NOR test which is a two-trial test of recognition memory based on the spontaneous preference of rats for novelty (Ennaceur and Delacour, Behav. Brain. Res. 1988; Bianchi et al. EJN. 2006). Briefly, rats are placed in the open field arena for a 3 min period of habituation and then re-placed in their “home” cage for 1 min. The animals are then re-placed in the arena for the familiarization trial (T1) and allowed to explore two identical objects for 5 min. […] The ability of the animals to discriminate between the novel and the familiar object is then expressed as D2-INDEX: [novel object (sec)−familiar object (sec)]/[novel object (sec)+familiar object (sec)] […]

[5] = system: GAP43; assay: Western blot of GAP43 in cortex and hippocampus after CCI; assay type: in vivo, rat; conditions: day 35, injured cortex (20 mg/kg only), hippocampus and non-injured cortex (both doses)
Description: (§1) CCI was performed with an electromagnetic impact device as described (MyNeurolab, St. Louis, Mo.; Brody et al, 2007). Anesthesized rats were subjected to a single right lateral CCI, with the following parameters impact centered 4.0 mm anterior to lambda and 4.5 mm […] of midline, within the craniotomy of the animal. The impact was set at a velocity of 4 m/s with a sustained depression of 200 ms, using a 5.0 mm tip.
Samples were analyzed by Western-blot at day 35 post-trauma (D35) to evaluate the effects of MAP4343 on: MAP2 (the target of MAP4343 and a modulator of microtubule function), the post-synaptic markers PSD95 and spinophilin, the pre-synaptic marker synaptophysin, and the axonal growth/integrity marker […].
Western blot was performed on cortex and hippocampus of TBI-injured animals receiving the first injection of MAP4343 (at 10 mg/kg or 20 mg/kg) or vehicle (sesame oil) 2 h after injury.
The expression level of various neuronal brain markers of plasticity was measured at day 35 post-trauma by western-blots in the cortex and hippocampus of left uninjured and right injured cerebral hemispheres of CCI traumatized animals receiving either vehicle (sesame oil, CCI-D0) or 3-methoxy-PREG (MAP4343) at 10 mg/kg (CCI-D1) or 20 mg/kg (CCI-D2), with first MAP4343 injection 2 h post-trauma.

[6] = system: CCI injured hippocampi; assay: Histological analysis of the hippocampus size after CCI; assay type: in vivo, rat; conditions: day 35, 10 mg/kg and 20 mg/kg, first injection 2 h after TBI
Description: as §1
Frozen sections were stained with cresyl violet. For each section analyzed, the size of the hippocampus was determined by first outlining all remaining tissue of each section taken at 500 μm intervals through the lesion (right hemisphere) or contra lateral hemisphere, thus providing a total tissue area (mm2) of the two hemispheres for each section. Then, the areas of sections were summed per hemisphere.

[7] = system: 80 different CNS neurotransmitters receptors; assay: In vitro affinity screen on CNS receptors; assay type: binding; conditions: 10 μM; significant: inhibition higher than 50%
Excerpt: MAP4343 has been screened for in vitro affinity to 80 different CNS neurotransmitters receptors using various validated binding assays.

[8] = In vivo toxicity, daily injection for one month; set-up: species or system rat; conditions: rats, 48 mg/kg daily injection for one month

In the case of CO[C@H]1CC[C@@]2(C)C(=CC[C@H]3[C@@H]4CC[C@H](C(C)=O)[C@@]4(C)CC[C@@H]32)C1 [3-methoxy-PREG, 3β-methoxy-pregna-5-ene-20-one], the “conversion to PREG or PROG” value [1] is reported as “not converted back to PREG or metabolized to PROG”, the “concentrations of MAP4343 that reach the brain” value [2] is reported as “concentrations of MAP4343 of significant therapeutic interest reach the brain” and the “locomotion, BBB score” value [3] is reported as “quite significantly higher than the control animals”. For the same molecule, the “discrimination between familiar and novel object” value [4] was “efficiently discriminated between the familiar and the novel object”, the GAP-43 expression [5] was “increased GAP-43 expression” and the “size of the injured hippocampus” value [6] was “significantly increases the size of the injured hippocampus”. For the same molecule, the “affinity for tested CNS receptors” value [7] was “no significant affinity for any tested receptor” and the “average weight and behavior” value [8] was “affected neither average weight nor behavior”.
